# Target: T1, Human CaV2.2 channels (Homo sapiens, UniProt Q00975)
# T1 construct: expressed in transfected cells
# Assay: Fluorescent assay for CaV2.2 channels using potassium depolarization to induce channel opening (FLIPR, Fluo-4)
# Type: cell-based
# Details: 3 μM test compound, 30 mM KCl, HEK293 cells stably expressing human CaV2.2; read-out: %-Inhib (CaV2.2) @3 μM @30 mM KCl
# Text: In the process, the Ca^2+ influx is quantified in the FLIPR assay with the aid of a Ca^2+-sensitive dye (type Fluo-4, Molecular Probes Europe BV, Leiden, the Netherlands) in a fluorescent imaging plate reader (FLIPR 3, Molecular Devices, Sunnyvale, USA), as described hereinafter.
# 2.1 Fluorescent Assay for CaV2.2 Channels Using Potassium Depolarization to Induce Channel Opening
# Human CaV2.2 channels were stably expressed in HEK293 cells together with alpha2-delta and beta subunits of voltage gated calcium channels. In addition, an inwardly rectifying potassium channel (Kir2.3) was stably expressed in these cells to augment control of the cell membrane potential by the concentration of extracellular potassium ions. Raise of the extracellular potassium concentration leads to depolarization of the membrane potential and thus regulates the voltage dependent state of CaV2.2 channels. For preparation, cells were seeded in black poly-D-lysine coated 96-well plates (Becton Dickinson, Biocoat 4640) in 100 μl medium [500 ml DMEM/F-12 plus Glutamax (Invitrogen 31331-093) plus 5.5 ml MEM NEAA 100× (Invitrogen 11140-035) plus 50 ml FBS decomplemented (Invitrogen 10270-106) plus 4.4 ml Geneticin (Invitrogen 10131-027) plus 1.1 ml Hygromycin B (Invitrogen 10687-010) plus 68.75 μl Puromycin (Clontech, 631306)] at a cell density of 45.000 cells per well.
# Plates were incubated at 37° C. (5% CO2) for 20 to 23 hours. On the day of experiment medium was discarded and cells were loaded with Fluo 4 by addition of 100 μl of basic assay buffer (10 mM HEPES, 30 mM KCl, 120 mM NaCl, 0.8 mM CaCl2, 1.7 mM MgCl2, 10 mM Glucose, 0.1% BSA. pH 7.4) containing 2 μM Fluo 4 (Molecular Probes; F-14201), 0.01% pluronic acid (Molecular Probes; P-6866) and 2.5 mM probenecid (Molecular Probes; P36400). Cells were incubated in the dark at 25° C. for 60 min. Then the dye containing buffer was discarded and 100 μl basic assay buffer was added. Subsequently cells were incubated in the dark at 25° C. for 15 min. 25 μl of basic assay buffer with or without test compound were added and cells were incubated again in the dark at 25° C. for 15 min. Fluorescence intensity was measured on a FLIPR 3 instrument (Molecular Devices Corp., Sunnyvale, Calif.) with excitation at 480 nm and emission at 535 nm. After continuously reading fluorescence for 30 sec, 50 μl of basic assay buffer containing 210 mM KCl (NaCl omitted) were added for depolarization. Peak fluorescent signal intensity was determined and the amplitude of the peak signal, normalized to base line, was used to measure channel inhibition by test compounds.
# T1 sequence (Q00975 whole entry): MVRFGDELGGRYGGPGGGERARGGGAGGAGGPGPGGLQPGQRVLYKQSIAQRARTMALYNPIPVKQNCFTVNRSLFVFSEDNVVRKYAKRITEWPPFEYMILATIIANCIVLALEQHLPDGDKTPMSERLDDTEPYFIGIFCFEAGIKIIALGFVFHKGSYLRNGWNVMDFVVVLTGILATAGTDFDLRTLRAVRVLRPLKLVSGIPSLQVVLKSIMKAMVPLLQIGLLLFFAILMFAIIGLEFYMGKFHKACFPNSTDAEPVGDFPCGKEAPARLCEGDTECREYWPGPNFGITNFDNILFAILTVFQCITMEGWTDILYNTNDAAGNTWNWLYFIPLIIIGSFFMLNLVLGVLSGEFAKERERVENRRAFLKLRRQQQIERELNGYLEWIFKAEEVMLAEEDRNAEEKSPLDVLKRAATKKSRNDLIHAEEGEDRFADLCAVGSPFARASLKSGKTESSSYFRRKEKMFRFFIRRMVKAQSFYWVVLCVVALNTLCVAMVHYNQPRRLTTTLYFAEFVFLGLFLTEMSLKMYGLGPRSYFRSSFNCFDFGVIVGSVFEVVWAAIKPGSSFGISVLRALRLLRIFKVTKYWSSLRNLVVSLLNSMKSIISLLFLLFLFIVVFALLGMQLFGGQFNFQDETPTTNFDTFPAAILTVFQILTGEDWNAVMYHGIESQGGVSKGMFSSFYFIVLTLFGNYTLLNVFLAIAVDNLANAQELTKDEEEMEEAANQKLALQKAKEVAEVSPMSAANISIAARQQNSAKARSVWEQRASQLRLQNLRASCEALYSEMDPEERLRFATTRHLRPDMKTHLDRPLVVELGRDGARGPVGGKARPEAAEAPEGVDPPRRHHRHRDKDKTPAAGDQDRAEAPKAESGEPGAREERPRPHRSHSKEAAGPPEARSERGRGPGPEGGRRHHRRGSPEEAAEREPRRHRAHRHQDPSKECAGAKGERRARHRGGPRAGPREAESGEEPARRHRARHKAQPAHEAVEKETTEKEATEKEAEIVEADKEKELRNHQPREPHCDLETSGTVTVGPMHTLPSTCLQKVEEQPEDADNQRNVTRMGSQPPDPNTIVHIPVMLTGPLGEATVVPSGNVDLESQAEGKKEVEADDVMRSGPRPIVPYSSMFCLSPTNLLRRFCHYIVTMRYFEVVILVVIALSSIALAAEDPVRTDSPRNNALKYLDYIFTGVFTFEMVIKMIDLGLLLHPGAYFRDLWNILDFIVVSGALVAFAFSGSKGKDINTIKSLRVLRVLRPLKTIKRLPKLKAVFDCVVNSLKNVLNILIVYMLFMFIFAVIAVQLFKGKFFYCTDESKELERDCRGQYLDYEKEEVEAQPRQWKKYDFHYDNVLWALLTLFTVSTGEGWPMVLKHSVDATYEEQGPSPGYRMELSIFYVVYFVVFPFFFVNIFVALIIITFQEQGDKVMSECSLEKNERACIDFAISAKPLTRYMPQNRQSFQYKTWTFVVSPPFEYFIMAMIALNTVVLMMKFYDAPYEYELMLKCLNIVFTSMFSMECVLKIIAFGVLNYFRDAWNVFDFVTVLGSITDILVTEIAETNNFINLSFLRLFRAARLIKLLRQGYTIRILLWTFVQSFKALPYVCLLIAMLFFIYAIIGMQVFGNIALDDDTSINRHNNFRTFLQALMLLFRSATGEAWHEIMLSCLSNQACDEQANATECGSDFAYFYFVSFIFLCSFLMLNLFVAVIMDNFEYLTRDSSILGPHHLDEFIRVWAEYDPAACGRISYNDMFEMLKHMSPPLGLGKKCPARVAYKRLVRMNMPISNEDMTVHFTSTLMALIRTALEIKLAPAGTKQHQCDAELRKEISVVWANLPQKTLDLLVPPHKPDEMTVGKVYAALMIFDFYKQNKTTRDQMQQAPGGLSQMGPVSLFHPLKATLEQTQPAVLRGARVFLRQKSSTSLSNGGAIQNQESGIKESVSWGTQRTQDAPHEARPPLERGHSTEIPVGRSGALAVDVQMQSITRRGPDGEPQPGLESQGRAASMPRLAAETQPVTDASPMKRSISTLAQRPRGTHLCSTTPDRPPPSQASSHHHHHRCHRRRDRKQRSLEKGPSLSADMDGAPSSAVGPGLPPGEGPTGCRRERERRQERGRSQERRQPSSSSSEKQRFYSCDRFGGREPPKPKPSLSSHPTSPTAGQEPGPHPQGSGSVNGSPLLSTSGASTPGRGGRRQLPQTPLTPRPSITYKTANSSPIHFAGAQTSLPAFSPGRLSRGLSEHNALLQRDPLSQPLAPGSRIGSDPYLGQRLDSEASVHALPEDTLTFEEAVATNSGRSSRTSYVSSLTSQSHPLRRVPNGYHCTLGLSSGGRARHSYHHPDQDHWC
# T1 sequence (P54289 25-1103, further chain): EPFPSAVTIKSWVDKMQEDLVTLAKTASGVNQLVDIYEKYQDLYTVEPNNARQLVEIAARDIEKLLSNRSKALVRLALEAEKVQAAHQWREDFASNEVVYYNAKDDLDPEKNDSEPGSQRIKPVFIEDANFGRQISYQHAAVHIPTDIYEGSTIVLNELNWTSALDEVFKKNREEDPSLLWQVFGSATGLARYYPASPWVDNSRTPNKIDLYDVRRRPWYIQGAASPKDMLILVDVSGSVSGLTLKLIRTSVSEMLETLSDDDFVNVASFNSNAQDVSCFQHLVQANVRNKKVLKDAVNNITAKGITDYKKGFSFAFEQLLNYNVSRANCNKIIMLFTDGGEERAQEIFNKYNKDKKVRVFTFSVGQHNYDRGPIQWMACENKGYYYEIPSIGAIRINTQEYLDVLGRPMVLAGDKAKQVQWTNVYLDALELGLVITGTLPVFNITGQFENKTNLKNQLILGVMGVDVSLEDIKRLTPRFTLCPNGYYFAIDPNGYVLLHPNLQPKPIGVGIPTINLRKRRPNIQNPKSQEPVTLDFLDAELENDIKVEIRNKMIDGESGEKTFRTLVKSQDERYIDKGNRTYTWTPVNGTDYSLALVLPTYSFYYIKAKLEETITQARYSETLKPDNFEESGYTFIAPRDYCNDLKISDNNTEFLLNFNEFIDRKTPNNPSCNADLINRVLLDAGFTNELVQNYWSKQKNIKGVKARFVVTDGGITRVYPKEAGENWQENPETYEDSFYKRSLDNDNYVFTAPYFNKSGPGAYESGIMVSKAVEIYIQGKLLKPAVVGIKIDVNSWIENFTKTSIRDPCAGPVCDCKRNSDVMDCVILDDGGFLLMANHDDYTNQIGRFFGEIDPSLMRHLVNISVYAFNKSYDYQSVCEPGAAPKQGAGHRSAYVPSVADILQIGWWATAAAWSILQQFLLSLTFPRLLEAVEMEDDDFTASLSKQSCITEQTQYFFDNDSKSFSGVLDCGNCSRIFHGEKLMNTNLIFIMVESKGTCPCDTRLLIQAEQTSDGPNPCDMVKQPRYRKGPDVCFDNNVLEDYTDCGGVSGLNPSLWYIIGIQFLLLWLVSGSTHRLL
# T1 sequence (P54284 whole entry, further chain): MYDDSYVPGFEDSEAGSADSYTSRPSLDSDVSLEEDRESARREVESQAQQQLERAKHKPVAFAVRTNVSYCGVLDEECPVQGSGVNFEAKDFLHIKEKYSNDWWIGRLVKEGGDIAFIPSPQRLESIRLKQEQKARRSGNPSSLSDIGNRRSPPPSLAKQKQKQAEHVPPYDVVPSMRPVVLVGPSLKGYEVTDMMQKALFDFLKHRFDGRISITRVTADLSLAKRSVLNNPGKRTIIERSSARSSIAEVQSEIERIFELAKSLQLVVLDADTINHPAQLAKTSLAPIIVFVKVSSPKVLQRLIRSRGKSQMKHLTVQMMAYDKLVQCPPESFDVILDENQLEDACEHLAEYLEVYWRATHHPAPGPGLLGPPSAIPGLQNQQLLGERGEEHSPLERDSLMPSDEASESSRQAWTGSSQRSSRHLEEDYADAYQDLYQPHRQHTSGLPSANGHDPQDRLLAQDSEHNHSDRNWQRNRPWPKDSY
row,Structure (SMILES),inhibition at 3 µM [%]
1,"Cc1c(-c2ccc(F)c(Cl)c2)c(C(=O)N(C)CCS(C)(=O)=O)n(Cc2ccccc2)c1C(F)(F)F [SC-252, 1-Benzyl-3-(3-chloro-4-fluoro-phenyl)-N,4-dimethyl-N-(2-methylsulfonyl-ethyl)-5-(trifluoromethyl)-1H-pyrrole-2-carboxylic acid amide]",> 95
2,"CS(=O)(=O)C1CCN(C(=O)c2c(-c3ccc(Cl)cc3)cc(C(F)(F)F)n2Cc2ccccc2)C1 (stereo not shown) [SC-185, [1-Benzyl-3-(4-chlorophenyl)-5-(trifluoromethyl)-1H-pyrrol-2-yl]-(3-methylsulfonyl-pyrrolidin-1-yl)-methanone]",> 95
3,"Cc1cc(CN(C)C(=O)c2c(-c3ccc(Cl)cc3)cc(C(F)(F)F)n2Cc2ccccc2)on1 [SC-204, 1-Benzyl-3-(4-chlorophenyl)-N-methyl-N-[(3-methyl-isoxazol-5-yl)-methyl]-5-(trifluoromethyl)-1H-pyrrole-2-carboxylic acid amide]",75 to 95
4,"CN(CC(C)(C)C#N)C(=O)c1c(-c2ccc(Cl)cc2)cc(C(F)(F)F)n1Cc1ccccc1 [SC-187, 1-Benzyl-3-(4-chlorophenyl)-N-(2-cyano-2-methyl-propyl)-N-methyl-5-(trifluoromethyl)-1H-pyrrole-2-carboxylic acid amide]",> 95
5,"Cc1c(-c2ccc(Cl)cc2F)c(C(=O)N(C)C2CCS(=O)(=O)CC2)n(Cc2ccccc2)c1C(F)(F)F [SC-160, 1-Benzyl-3-(4-chloro-2-fluoro-phenyl)-N-(1,1-dioxo-thian-4-yl)-N,4-dimethyl-5-(trifluoromethyl)-1H-pyrrole-2-carboxylic acid amide]",> 95
6,"Cc1c(-c2ccc(Cl)cc2F)c(C(=O)N(C)CC(C)(C)O)n(Cc2ccccc2)c1C(F)(F)F [SC-58, 1-Benzyl-3-(4-chloro-2-fluoro-phenyl)-N-(2-hydroxy-2-methyl-propyl)-N,4-dimethyl-5-(trifluoromethyl)-1H-pyrrole-2-carboxylic acid amide]",> 95
7,"Cc1c(-c2ccc(Cl)cc2)c(C(=O)N2CCOCC2)n(Cc2cccc(Cl)c2)c1C(F)(F)F [SC-25, [3-(4-Chlorophenyl)-1-[(3-chlorophenyl)-methyl]-4-methyl-5-(trifluoromethyl)-1H-pyrrol-2-yl]-morpholin-4-yl-methanone]",75 to 95
8,"O=C(c1c(-c2ccc(Cl)cc2)cc(C(F)(F)F)n1Cc1ccccc1)N1CC(F)(F)C1 [SC-94, [1-Benzyl-3-(4-chlorophenyl)-5-(trifluoromethyl)-1H-pyrrol-2-yl]-(3,3-difluoro-azetidin-1-yl)-methanone]",75 to 95
9,"Cc1c(-c2ccc(Cl)cc2)c(C(=O)N(C)C(CO)C(C)(C)C)n(Cc2ccccc2)c1C(F)(F)F (stereo not shown) [SC-124, 1-Benzyl-3-(4-chlorophenyl)-N-[1-(hydroxymethyl)-2,2-dimethyl-propyl]-N,4-dimethyl-5-(trifluoromethyl)-1H-pyrrole-2-carboxylic acid amide]",> 95
10,"Cc1c(-c2ccc(Cl)cc2F)c(C(=O)N(C)CCC2CCCO2)n(Cc2ccccc2)c1C(F)(F)F (stereo not shown) [SC-164, 1-Benzyl-3-(4-chloro-2-fluoro-phenyl)-N,4-dimethyl-N-(2-tetrahydro-furan-2-yl-ethyl)-5-(trifluoromethyl)-1H-pyrrole-2-carboxylic acid amide]",> 95
11,"Cc1c(-c2ccc(Cl)cc2F)c(C(=O)N2CCOC(C)(C)C2)n(Cc2ccccc2)c1C(F)(F)F [SC-155, [1-Benzyl-3-(4-chloro-2-fluoro-phenyl)-4-methyl-5-(trifluoromethyl)-1H-pyrrol-2-yl]-(2,2-dimethyl-morpholin-4-yl)-methanone]",> 95
12,"Cc1c(-c2ccc(Cl)cc2)c(C(=O)N(C)CCCS(C)(=O)=O)n(Cc2ccccc2)c1C(F)(F)F [SC-127, 1-Benzyl-3-(4-chlorophenyl)-N,4-dimethyl-N-(3-methylsulfonyl-propyl)-5-(trifluoromethyl)-1H-pyrrole-2-carboxylic acid amide]",> 95
13,"Cc1c(-c2ccc(Cl)c(F)c2)c(C(=O)N2CC(F)(F)C2)n(Cc2ccccc2)c1C(F)(F)F [SC-98, [1-Benzyl-3-(4-chloro-3-fluoro-phenyl)-4-methyl-5-(trifluoromethyl)-1H-pyrrol-2-yl]-(3,3-difluoro-azetidin-1-yl)-methanone]",40 to 75
14,"Cc1c(-c2ccc(OCC(F)(F)F)cc2)c(C(=O)N2CCOCC2)n(Cc2ccccc2)c1C(F)(F)F [SC-263, [1-Benzyl-4-methyl-3-[4-(2,2,2-trifluoro-ethoxy)-phenyl]-5-(trifluoromethyl)-1H-pyrrol-2-yl]-morpholin-4-yl-methanone]",75 to 95
15,"Cc1c(-c2ccc(Cl)cc2F)c(C(=O)N(C)CCS(C)(=O)=O)n(Cc2ccccc2)c1C(F)(F)F [SC-64, 1-Benzyl-3-(4-chloro-2-fluoro-phenyl)-N,4-dimethyl-N-(2-methylsulfonyl-ethyl)-5-(trifluoromethyl)-1H-pyrrole-2-carboxylic acid amide]",> 95
16,"Cc1c(-c2ccc(Cl)cc2F)c(C(=O)N2CCC(CO)C2)n(Cc2ccccc2)c1C(F)(F)F (stereo not shown) [SC-166, [1-Benzyl-3-(4-chloro-2-fluoro-phenyl)-4-methyl-5-(trifluoromethyl)-1H-pyrrol-2-yl]-[3-(hydroxymethyl)-pyrrolidin-1-yl]-methanone]",> 95
17,"CC(C)S(=O)(=O)CCN(C)C(=O)c1c(-c2ccc(Cl)cc2)cc(C(F)(F)F)n1Cc1ccccc1 [SC-194, 1-Benzyl-3-(4-chlorophenyl)-N-[2-(isopropylsulfonyl)-ethyl]-N-methyl-5-(trifluoromethyl)-1H-pyrrole-2-carboxylic acid amide]",> 95
18,"Cc1c(-c2ccc(Cl)cc2)c(C(=O)N2CC(F)(F)C2)n(-c2ccc(Cl)cc2)c1C(F)(F)F [SC-44, [1,3-Bis(4-chlorophenyl)-4-methyl-5-(trifluoromethyl)-1H-pyrrol-2-yl]-(3,3-difluoro-azetidin-1-yl)-methanone]",75 to 95
19,"CN(CC1CC1)C(=O)c1c(-c2ccc(Cl)cc2)cc(C(F)(F)F)n1Cc1ccccc1 [SC-76, 1-Benzyl-3-(4-chlorophenyl)-N-(cyclopropyl-methyl)-N-methyl-5-(trifluoromethyl)-1H-pyrrole-2-carboxylic acid amide]",75 to 95
20,"Cc1c(-c2ccc(F)c(Cl)c2)c(C(=O)N(C)C(C)(C)CO)n(Cc2ccccc2)c1C(F)(F)F [SC-257, 1-Benzyl-3-(3-chloro-4-fluoro-phenyl)-N-(2-hydroxy-1,1-dimethyl-ethyl)-N,4-dimethyl-5-(trifluoromethyl)-1H-pyrrole-2-carboxylic acid amide]",75 to 95
21,"O=C1CN(C(=O)c2c(-c3ccc(Cl)cc3)cc(C(F)(F)F)n2Cc2ccccc2)CCN1 [SC-66, 4-[1-Benzyl-3-(4-chlorophenyl)-5-(trifluoromethyl)-1H-pyrrole-2-carbonyl]-piperazin-2-one]",75 to 95
22,"CN(Cc1nccn1C)C(=O)c1c(-c2ccc(Cl)cc2)cc(C(F)(F)F)n1Cc1ccccc1 [SC-212, 1-Benzyl-3-(4-chlorophenyl)-N-methyl-N-[(1-methyl-1H-imidazol-2-yl)-methyl]-5-(trifluoromethyl)-1H-pyrrole-2-carboxylic acid amide]",> 95

# — US9302988B2, “Fluoromethyl-substituted pyrrole carboxamides” (GRÜNENTHAL GMBH, priority 2012, dated 2016)
